Data from patent US12365685B2, “Substituted fused aromatic ring derivative, composition and use thereof” (Shenzhen TargetRx, Inc., priority 2019, dated 2025).
Where two headings read alike, the source gives them in different places.

Experiments:
[1] = molecular target: Ret wt (Homo sapiens (Human), UniProt P07949); experiment: Inhibition of kinase, Ret wt (HTRF KinEASE-TK); type: biochemical
Procedure: (§1) Ret wt (Carna, Cat. No. 08-159-10 ug), RET (V804M), Active (Signalchem, Cat. No. R02-12GG), HTRF KinEASE-TK kit (Cisbio, Cat. No. 62TK0PEC), CEP-32496 (MCE, Cat. No. HY-15200), ATP (Sigma, Cat. No. A7699), DMSO (Sigma, Cat. No. D8418-1L), DTT (Sigma, Cat. No. D0632), MgCl2 (Sigma, Cat. No. M1028), 384-well plate (Labcyte, Cat. No. P-05525-BC).
(§2) Formulation of compound: The test compounds were dissolved in DMSO to obtain 10 mM stock solutions, which were then serially diluted 3-fold in DMSO to obtain 10 concentrations. At the time of addition, the compound was further diluted 10-fold with buffer.
(§3) In 5× kinase buffer A, Ret wt or RET V804M kinase was mixed with different concentrations of compounds prepared by pre-dilution for 10 minutes. Each concentration was tested in duplicate. The corresponding substrate and ATP were added, and reaction was performed at room temperature for 20 minutes (negative and positive controls were provided: the negative control was a blank control, and the positive control was CEP-32496). After completion of the reaction, detection reagents (reagents in the HTRF KinEASE-TK kit) were added. After incubating for 30 minutes at room temperature, enzyme activity in the presence of various concentrations of the compounds of the present disclosure was determined by Envision microplate reader, and inhibitory activity of different concentrations of the compounds on enzyme activity was calculated. The inhibitory activity of different concentrations of the compounds on enzyme activity was fitted by Graphpad 5.0 software, and the IC50 value was calculated, wherein A indicates IC50 10 nM, B indicates 10 nM<IC50≤50 nM, C indicates 50 nM<IC50≤100 nM, and D indicates IC50>100 nM.

[2] = molecular target: RET V804M (Homo sapiens (Human), UniProt P07949, V804M); experiment: Inhibition of kinase, RET V804M (HTRF KinEASE-TK); type: biochemical; details: reaction 20 minutes at room temperature
Procedure: as §1, §2, §3

[3] = system: Ba/F3 parental; experiment: Cytotoxicity assay, Ba/F3 parental (CellTiter-Glo); type: cell-based; details: Mus musculus, BaF3; 72 hrs, CTG
Excerpt: [Worded in the source for another cell line; this cell line is reported under the same test.] (§4) Inhibitory effect of example compounds on the activity of Ba/F3 KIF5B-RET and Ba/F3 FLT3-ITD cells was detected.
(§5) Materials and reagents: fetal bovine serum (FBS) (GIBCO, Cat. No. 10099141), CellTiter-Glo® Luminescent Cell Viability Assay (Promega, Cat #G7572), 96-well clear flat-bottom black-wall plate (Corning®, Cat #3603).
(§6) • 1. Cells in the logarithmic growth phase were harvested and counted with a […]. Cell viability was detected by a trypan blue exclusion method, ensuring that cell viability was 90% or more; • 2. The cell concentration was adjusted to 3000 cells/well; 90 μl of cell suspension was added to each well of the 96-well plate; • 3. The cells in the 96-well plate were incubated overnight under the condition of 37° C., 5% CO2, and 95% humidity. Dilution and Addition of Compound: • 1. 10-fold compound solutions were formulated by 3.16-fold serial dilution starting from a concentration of 10 μM, resulting in 9 concentrations. 10 μL of the compound solutions were added in each well of the 96-well plate seeded with cells in triplicate for each compound concentration; • 2. The cells in the 96-well plate added with compounds were further incubated under the condition of 37° C., 5% CO2, and 95% humidity for 72 hrs, and then CTG analysis was carried out. Plate Reading at the End: • 1. CTG reagent was thawed, and the cell plate was equilibrated at room temperature for 30 minutes; • 2. An equal volume ([…]) of CTG solution was added to each well; • 3. The cell plate was shaken on an orbital shaker for 5 minutes to lyse the cells; • 4. The cell plate was placed at RT for 20 minutes to stabilize the luminescence signal; • 5. Luminescence value was read. Data Processing
(§7) Data were analyzed by GraphPad Prism 5.0 software, and fitted by nonlinear S-curve regression to obtain a dose-response curve, from which IC50 values were calculated, wherein A indicates IC50≤10 nM, B indicates 10 nM<IC50≤50 nM, C indicates 50 nM<IC50≤100 nM, and D indicates IC50>100 nM. cell survival (%)=(Lumtest compound−Lumculture medium control)/(Lumcell control−Lumculture medium control)×100%.

[4] = system: Ba/F3 KIF5B-RET cells; experiment: Cytotoxicity assay, Ba/F3 KIF5B-RET (CellTiter-Glo); type: cell-based; details: Mus musculus, BaF3; 72 hrs, CTG
Excerpt: as §4, §5, §6, §7

[5] = system: Ba/F3 KIF5B-RET^V804M; experiment: Cytotoxicity assay, Ba/F3 KIF5B-RET V804M (CellTiter-Glo); type: cell-based; details: Mus musculus, BaF3; 72 hrs, CTG
Excerpt: [Worded in the source for another variant; this variant is reported under the same test.] as §4, §5, §6, §7

[6] = system: Ba/F3 FLT3-ITD cells; experiment: Cytotoxicity assay, Ba/F3 FLT3-ITD (CellTiter-Glo); type: cell-based; details: 72 hrs, CTG
Excerpt: as §4, §5, §6, §7

[7] = system: Ba/F3 FLT3-ITD^D835Y; experiment: Cytotoxicity assay, Ba/F3 FLT3-ITD D835Y (CellTiter-Glo); type: cell-based; details: Mus musculus, BaF3; 72 hrs, CTG
Excerpt: [Worded in the source for another variant; this variant is reported under the same test.] as §4, §5, §6, §7

[8] = system: Ba/F3 FLT3-ITD^F691L; experiment: Cytotoxicity assay, Ba/F3 FLT3-ITD F691L (CellTiter-Glo); type: cell-based; details: Mus musculus, BaF3; 72 hrs, CTG
[9] = HTRF KinEASE-TK, reaction 20 minutes at room temperature, read-out: Ret wt IC50

Ret wt, sequence (P07949 29-1114): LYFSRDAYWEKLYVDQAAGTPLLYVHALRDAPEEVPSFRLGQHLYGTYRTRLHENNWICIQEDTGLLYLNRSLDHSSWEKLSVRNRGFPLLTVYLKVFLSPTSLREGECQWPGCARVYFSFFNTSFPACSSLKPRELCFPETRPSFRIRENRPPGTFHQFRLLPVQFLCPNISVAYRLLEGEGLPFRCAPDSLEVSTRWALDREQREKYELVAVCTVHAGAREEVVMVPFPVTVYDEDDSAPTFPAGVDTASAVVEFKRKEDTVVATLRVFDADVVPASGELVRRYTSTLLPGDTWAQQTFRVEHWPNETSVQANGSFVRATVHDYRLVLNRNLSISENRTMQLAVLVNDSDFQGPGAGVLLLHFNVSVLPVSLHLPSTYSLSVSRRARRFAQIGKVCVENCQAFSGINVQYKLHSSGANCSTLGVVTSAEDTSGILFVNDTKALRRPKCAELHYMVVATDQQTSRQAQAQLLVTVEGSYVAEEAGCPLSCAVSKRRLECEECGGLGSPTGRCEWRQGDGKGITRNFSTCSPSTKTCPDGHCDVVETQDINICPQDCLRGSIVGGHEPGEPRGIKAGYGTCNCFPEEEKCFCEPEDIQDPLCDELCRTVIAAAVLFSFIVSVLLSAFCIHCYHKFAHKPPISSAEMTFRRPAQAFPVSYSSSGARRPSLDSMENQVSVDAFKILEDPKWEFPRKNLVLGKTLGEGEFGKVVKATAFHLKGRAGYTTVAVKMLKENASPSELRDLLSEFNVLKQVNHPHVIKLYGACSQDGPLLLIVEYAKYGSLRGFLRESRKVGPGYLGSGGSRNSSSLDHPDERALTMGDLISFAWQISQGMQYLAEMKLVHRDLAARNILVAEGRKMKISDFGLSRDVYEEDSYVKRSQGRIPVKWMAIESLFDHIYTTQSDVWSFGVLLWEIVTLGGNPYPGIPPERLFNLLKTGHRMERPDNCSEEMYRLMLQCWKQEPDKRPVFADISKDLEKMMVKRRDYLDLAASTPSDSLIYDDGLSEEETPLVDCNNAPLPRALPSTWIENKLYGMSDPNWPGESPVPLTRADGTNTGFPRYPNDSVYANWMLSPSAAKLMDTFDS
RET V804M, sequence (P07949 29-1114 V804M): as the sequence (P07949 29-1114) above, with V776M counted along it

Row | IC50 [1, 9] | IC50 [2] | IC50 ([1]; read-out: IC50 against Ret wt) | SMILES | IC50 [3] | IC50 [4] | IC50 [5] | IC50 [6] | IC50 [7] | IC50 [8]
1 | 0.13 nM | 0.21 nM |  | Cn1cc(-c2cc3ncc(-c4ccc(CC(=O)Nc5cc(C(C)(C)C(F)(F)F)on5)cn4)n3cn2)cn1 [Compound T-3, 2-(6-(7-(1-methyl-1H-pyrazol-4-yl)imidazo[1,2-c]pyrimidin-3-yl)pyridin-3-yl)-N-(5-(1,1,1-trifluoro-2-methylpropan-2-yl)isoxazol-3-yl)acetamide] | 8070 nM | 51.2 nM | 125 nM | 0.2 nM | 9.08 nM | 13.5 nM
2 | 0.31 nM | 1.12 nM |  | Cn1cc(-c2cn3ncc(-c4ccc(CC(=O)Nc5cc(C(C)(C)C(F)(F)F)on5)cc4)c3cn2)cn1 [Compound T-12, 2-(4-(6-(1-methyl-1H-pyrazol-4-yl)pyrazolo[1,5-a]pyrazin-3-yl)phenyl)-N-(5-(1,1,1-trifluoro-2-methylpropan-2-yl)isoxazol-3-yl)acetamide] |  | 9.98 nM |  |  |  | 
3 | 0.1 nM | 0.23 nM |  | Cn1cc(-c2cnc3c(-c4ccc(CC(=O)Nc5cc(C(C)(C)C(F)(F)F)on5)cc4)cnn3c2)cn1 [Compound T-10, 2-(4-(6-(1-methyl-1H-pyrazol-4-yl)pyrazolo[1,5-a]pyrimidin-3-yl)phenyl)-N-(5-(1,1,1-trifluoro-2-methylpropan-2-yl)isoxazol-3-yl)acetamide] | 930 nM | 9.98 nM | 8.15 nM | < 0.1 nM | 1.83 nM | 1.02 nM
4 | > 100 nM | 75.8 nM |  | Cn1cc(-c2cnn3c(-c4ccc(NC(=O)Nc5cc(C(F)(F)F)ccc5F)cc4)cnc3c2)cn1 [Compound T-1, 1-(2-fluoro-5-(trifluoromethyl)phenyl)-3-(4-(7-(1-methyl-1H-pyrazol-4-yl)imidazo[1,2-b]pyridazin-3-yl)phenyl)urea] | 1090 nM | 534 nM |  | 2.32 nM |  | 
5 | 0.45 nM | 1.04 nM |  | Cn1cc(Nc2ccnn3c(-c4ccc(CC(=O)Nc5cc(C(C)(C)C(F)(F)F)on5)cc4)cnc23)cn1 [Compound T-6, 2-(4-(8-((1-methyl-1H-pyrazol-4-yl)amino)imidazo[1,2-b]pyridazin-3-yl)phenyl)-N-(5-(1,1,1-trifluoro-2-methylpropan-2-yl)isoxazol-3-yl)acetamide] | 2180 nM | 6.2 nM | 20.9 nM | 1.05 nM | 2.38 nM | 1.24 nM
6 | 0.25 nM | 0.8 nM |  | Cn1cc(Nc2nccn3c(-c4ccc(CC(=O)Nc5cc(C(C)(C)C(F)(F)F)on5)cc4)cnc23)cn1 [Compound T-5, 2-(4-(8-((1-methyl-1H-pyrazol-4-yl)amino)imidazo[1,2-a]pyrazin-3-yl)phenyl)-N-(5-(1,1,1-trifluoro-2-methylpropan-2-yl)isoxazol-3-yl)acetamide] | 2270 nM | 2.48 nM | 5.43 nM | 0.1 nM | 1.43 nM | 1.43 nM
7 | 0.15 nM | 0.2 nM |  | Cn1cc(-c2cnn3c(-c4ccc(CC(=O)Nc5cc(C(C)(C)C(F)(F)F)on5)c(F)c4)cnc3c2)cn1 [Compound T-7, 2-(2-fluoro-4-(7-(1-methyl-1H-pyrazol-4-yl)imidazo[1,2-b]pyridazin-3-yl)phenyl)-N-(5-(1,1,1-trifluoro-2-methylpropan-2-yl)isoxazol-3-yl)acetamide] | 1820 nM | 2.3 nM | 10.8 nM | 0.19 nM | 1.15 nM | 1.15 nM
8 | 0.24 nM | 0.48 nM |  | Cn1cc(-c2cnn3c(-c4ccc(CC(=O)Nc5cc(C(C)(C)C(F)(F)F)on5)cn4)cnc3c2)cn1 [Compound T-9, 2-(6-(7-(1-methyl-1H-pyrazol-4-yl)imidazo[1,2-b]pyridazin-3-yl)pyridin-3-yl)-N-(5-(1,1,1-trifluoro-2-methylpropan-2-yl)isoxazol-3-yl)acetamide] | > 10000 nM | 60.8 nM | 559 nM | 0.51 nM | 10.6 nM | 15.7 nM
9 | 0.18 nM | 0.4 nM |  | Cn1cc(-c2cnn3c(-c4ccc(CC(=O)Nc5cc(C(C)(C)C(F)(F)F)on5)cc4)cnc3c2)cn1 [Compound T-2, 2-(4-(7-(1-methyl-1H-pyrazol-4-yl)imidazo[1,2-b]pyridazin-3-yl)phenyl)-N-(5-(1,1,1-trifluoro-2-methylpropan-2-yl)isoxazol-3-yl)acetamide] | 3270 nM | 4.91 nM | 17.9 nM | 0.79 nM | 1.22 nM | 1.43 nM
10 | 0.1 nM | 0.35 nM | < 0.2 nM | Cn1cc(-c2cc3ncc(-c4ccc(CC(=O)Nc5cc(C(C)(C)C(F)(F)F)on5)c(F)c4)n3cn2)cn1 [Compound T-8, 2-(2-fluoro-4-(7-(1-methyl-1H-pyrazol-4-yl)imidazo[1,2-c]pyrimidin-3-yl)phenyl)-N-(5-(1,1,1-trifluoro-2-methylpropan-2-yl)isoxazol-3-yl)acetamide] |  | 15.4 nM |  |  |  | 
11 | 0.16 nM | 0.28 nM |  | Cn1cc(-c2cc3ncc(-c4ccc(CC(=O)Nc5cc(C(C)(C)C(F)(F)F)on5)cc4)n3cn2)cn1 [Compound T-4, 2-(4-(7-(1-methyl-1H-pyrazol-4-yl)imidazo[1,2-c]pyrimidin-3-yl)phenyl)-N-(5-(1,1,1-trifluoro-2-methylpropan-2-yl)isoxazol-3-yl)acetamide] |  | 7.17 nM |  | 0.49 nM |  | 
12 | 0.68 nM | 0.87 nM |  | Cn1cc(-c2ccc3c(-c4ccc(CC(=O)Nc5cc(C(C)(C)C(F)(F)F)on5)cc4)cnn3c2)cn1 [Compound T-11, 2-(4-(6-(1-methyl-1H-pyrazol-4-yl)pyrazolo[1,5-a]pyridin-3-yl)phenyl)-N-(5-(1,1,1-trifluoro-2-methylpropan-2-yl)isoxazol-3-yl)acetamide] | 1400 nM | 15.4 nM | 3.66 nM | 0.2 nM | 1.73 nM | 1.12 nM
